{
  "source": "ChEMBL document CHEMBL2074279",
  "about": "“Pharmacokinetics of 5 (and 6)-carboxy-2',7'-dichlorofluorescein and its diacetate promoiety in the liver” (J Pharmacol Exp Ther, 2003)",
  "key": {"[1]": {"biological_target": "ATP-binding cassette sub-family C member 2 (Rattus norvegicus, UniProt Q63120)", "sequence (Q63120 whole entry)": "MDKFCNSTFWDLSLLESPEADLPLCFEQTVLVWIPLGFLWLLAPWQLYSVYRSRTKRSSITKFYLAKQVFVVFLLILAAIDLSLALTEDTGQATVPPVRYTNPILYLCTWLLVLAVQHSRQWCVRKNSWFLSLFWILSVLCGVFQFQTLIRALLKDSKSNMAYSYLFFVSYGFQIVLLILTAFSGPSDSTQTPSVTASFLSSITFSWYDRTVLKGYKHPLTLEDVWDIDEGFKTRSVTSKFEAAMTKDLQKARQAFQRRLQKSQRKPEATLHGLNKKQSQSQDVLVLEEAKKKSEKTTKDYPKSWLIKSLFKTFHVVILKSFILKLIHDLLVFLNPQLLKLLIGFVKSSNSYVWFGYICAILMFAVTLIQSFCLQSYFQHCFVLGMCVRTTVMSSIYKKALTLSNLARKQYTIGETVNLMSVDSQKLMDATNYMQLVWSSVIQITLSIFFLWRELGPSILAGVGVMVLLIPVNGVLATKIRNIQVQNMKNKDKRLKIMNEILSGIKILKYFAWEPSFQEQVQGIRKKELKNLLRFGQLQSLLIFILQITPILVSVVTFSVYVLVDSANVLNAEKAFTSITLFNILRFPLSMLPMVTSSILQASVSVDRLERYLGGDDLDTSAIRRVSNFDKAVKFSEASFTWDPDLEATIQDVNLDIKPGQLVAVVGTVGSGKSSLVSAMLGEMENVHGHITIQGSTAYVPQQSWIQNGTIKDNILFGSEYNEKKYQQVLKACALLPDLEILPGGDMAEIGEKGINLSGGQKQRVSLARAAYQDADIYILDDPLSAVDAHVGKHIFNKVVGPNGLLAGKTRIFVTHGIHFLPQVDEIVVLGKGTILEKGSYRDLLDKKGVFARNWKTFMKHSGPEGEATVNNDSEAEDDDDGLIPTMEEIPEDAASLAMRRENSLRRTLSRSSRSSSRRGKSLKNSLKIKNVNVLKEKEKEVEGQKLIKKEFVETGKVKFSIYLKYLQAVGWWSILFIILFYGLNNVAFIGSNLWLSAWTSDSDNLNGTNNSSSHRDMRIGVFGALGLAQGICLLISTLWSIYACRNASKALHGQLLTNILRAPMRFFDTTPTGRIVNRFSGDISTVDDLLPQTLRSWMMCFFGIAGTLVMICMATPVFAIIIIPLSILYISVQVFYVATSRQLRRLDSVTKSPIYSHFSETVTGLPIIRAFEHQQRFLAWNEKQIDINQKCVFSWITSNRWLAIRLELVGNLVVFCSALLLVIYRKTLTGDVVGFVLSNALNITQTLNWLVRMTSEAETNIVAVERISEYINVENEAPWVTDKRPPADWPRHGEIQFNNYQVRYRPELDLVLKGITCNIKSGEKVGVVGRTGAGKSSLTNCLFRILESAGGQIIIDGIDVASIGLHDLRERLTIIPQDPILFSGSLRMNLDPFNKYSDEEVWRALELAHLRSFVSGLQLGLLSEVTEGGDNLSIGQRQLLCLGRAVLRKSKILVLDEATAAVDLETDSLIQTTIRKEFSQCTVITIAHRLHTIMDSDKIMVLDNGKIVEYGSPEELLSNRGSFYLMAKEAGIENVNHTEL", "experiment": "TP_TRANSPORTER: inhibition of CDF uptake (CDF: 10 uM, Probenecid: 260 uM) in Mrp2-expressing Sf9 cells", "assay_type": "functional", "conditions": "sf9, 260 µM"}, "[2]": {"biological_target": "ATP-binding cassette sub-family C member 3 (Rattus norvegicus, UniProt O88563)", "sequence (O88563 whole entry)": "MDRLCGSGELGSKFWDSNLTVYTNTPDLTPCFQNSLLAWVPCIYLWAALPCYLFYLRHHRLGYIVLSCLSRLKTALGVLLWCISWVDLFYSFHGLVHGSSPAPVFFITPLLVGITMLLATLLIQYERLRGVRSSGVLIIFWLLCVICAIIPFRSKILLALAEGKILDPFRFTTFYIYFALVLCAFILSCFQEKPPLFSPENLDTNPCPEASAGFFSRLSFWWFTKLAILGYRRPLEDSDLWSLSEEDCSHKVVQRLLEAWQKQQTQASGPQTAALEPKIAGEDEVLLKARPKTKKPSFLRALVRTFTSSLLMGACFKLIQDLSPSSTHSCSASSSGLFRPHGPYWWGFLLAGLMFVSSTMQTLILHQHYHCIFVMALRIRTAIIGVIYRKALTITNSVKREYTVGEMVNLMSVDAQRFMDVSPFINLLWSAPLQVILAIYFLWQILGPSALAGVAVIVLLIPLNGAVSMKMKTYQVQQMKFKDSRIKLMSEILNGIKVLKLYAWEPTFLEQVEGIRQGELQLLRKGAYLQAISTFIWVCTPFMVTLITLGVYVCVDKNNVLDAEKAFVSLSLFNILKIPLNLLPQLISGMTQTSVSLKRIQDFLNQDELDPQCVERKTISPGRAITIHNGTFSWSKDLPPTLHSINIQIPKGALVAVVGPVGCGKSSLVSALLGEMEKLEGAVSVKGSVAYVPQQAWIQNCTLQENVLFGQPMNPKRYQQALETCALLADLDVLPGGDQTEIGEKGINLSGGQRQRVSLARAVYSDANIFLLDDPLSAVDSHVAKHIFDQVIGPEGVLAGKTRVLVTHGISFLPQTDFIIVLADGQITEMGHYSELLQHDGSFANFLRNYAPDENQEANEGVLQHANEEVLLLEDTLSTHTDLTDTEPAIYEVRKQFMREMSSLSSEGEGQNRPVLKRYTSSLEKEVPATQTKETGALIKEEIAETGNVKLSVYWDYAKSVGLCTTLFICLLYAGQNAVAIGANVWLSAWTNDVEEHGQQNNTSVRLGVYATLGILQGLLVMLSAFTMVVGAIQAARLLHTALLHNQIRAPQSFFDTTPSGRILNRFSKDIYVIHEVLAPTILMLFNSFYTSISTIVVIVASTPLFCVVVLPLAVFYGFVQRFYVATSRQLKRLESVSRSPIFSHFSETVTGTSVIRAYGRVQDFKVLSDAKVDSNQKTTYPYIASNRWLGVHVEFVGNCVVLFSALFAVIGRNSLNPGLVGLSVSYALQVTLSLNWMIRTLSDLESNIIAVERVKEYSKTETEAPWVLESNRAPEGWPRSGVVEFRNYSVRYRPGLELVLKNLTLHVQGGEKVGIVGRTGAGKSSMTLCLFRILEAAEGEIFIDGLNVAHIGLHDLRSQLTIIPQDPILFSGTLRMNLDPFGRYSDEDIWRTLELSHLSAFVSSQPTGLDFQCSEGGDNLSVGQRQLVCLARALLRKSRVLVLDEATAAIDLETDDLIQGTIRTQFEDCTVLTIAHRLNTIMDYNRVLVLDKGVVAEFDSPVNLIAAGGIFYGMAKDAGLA", "experiment": "TP_TRANSPORTER: inhibition of CDF uptake (CDF: 10 uM, Probenecid: 260 uM) in Mrp3-expressing Sf9 cells", "assay_type": "functional", "conditions": "sf9, 260 µM"}},
  "data": [
    {"smiles": "CCCN(CCC)S(=O)(=O)c1ccc(C(=O)O)cc1", "note": "[PROBENECID]", "values": [
      {"measurement": "Activity", "setting": "[1]", "result": "inhibitor [(at a rough estimate) 40 % of control]"},
      {"measurement": "Activity", "setting": "[2]", "result": "inhibitor [(at a rough estimate) 35 % of control]"}
    ]}
  ]
}
